# Reference: publication PMC3770654, “Gastric Antimicrobial Peptides Fail to Eradicate Helicobacter pylori Infection Due to Selective Induction and Resistance” (PLoS ONE, 2013)
# Assays:
# Type in all cases: cell-based
# P. aeruginosa = assay: Killing of P. aeruginosa by elafin (data not shown)
# [1] = system: H. pylori KaE1, DSM 9691, DSM 10242 and DSM 21031; assay: Flow cytometric viability assay with DiBAC4(3), four H. pylori strains
# Experimental: (§1) The clinical isolate H. pylori KaE1 and the reference strains H. pylori DSM 9691, DSM 10242 and DSM 21031 were tested for susceptibility towards defensins, LL37 and elafin (amino acid sequences Table S1). The strain H. pylori DSM 10242 is positive for the virulence factors VacA and CagA. As control strain for antimicrobial activity served the sensitive E. coli ATCC 25922.
# (§2) H. pylori strains were cultured on Columbia blood agar at 37 C° for 2 days in a microaerophilic atmosphere with CampyGen (Oxoid, Hampshire, UK). Subsequently the bacteria were suspended in Schaedler Broth (BD, Sparks, USA) diluted 1:6 with aqua dest. for incubation with antimicrobial peptides.
# (§3) Bacterial viability after incubation with antimicrobial peptides or biopsy extracts was analyzed with the membrane potential sensitive dye DiBAC4(3) (bis-(1,3-dibutylbarbituric acid) trimethine oxonol) (Invitrogen, Carlsbad, CA, USA) as described previously. Briefly, 1.5x10^6 mid-logarithmic-phase bacteria/ml of H. pylori or E. coli in Schaedler Broth 1:6 were incubated with 20 µg/ml HBD1-4 (Peptide Institute, Osaka, Japan), elafin (Proteo Biotech, Kiel, Germany for FACS analysis and RDA and elafin from Peptide Institute, Osaka for CFU determination), with LL37 (Innovagen, Lund, Sweden) or with 10 µg total protein of antrum biopsy extracts at 37°C. After 90 minutes 1 µg/ml DiBAC4(3) was added to the suspensions and further incubated for 10 minutes. Then, the suspensions were centrifuged with 4500 x g for 10 minutes, pellets resuspended in 300 µl PBS and bacterial fluorescence was analyzed by a FACSCalibur^TM (BD, Sparks, USA), using Cell Quest software (BD, Sparks, USA). In each sample 10000 bacterial events were analyzed for green fluorescence and the antimicrobial activity was determined as percentage of depolarized, fluorescent bacteria. Inhibition of bacterial growth was tested by plating aliquots on Columbia blood agar and incubating at 37 C° for 2 days in a microaerophilic atmosphere with CampyGen (Oxoid, Hampshire, UK). Then colony forming units (CFU) were counted.
# H. pylori DSM 10242 = assay: Plating on Columbia blood agar with CFU counting; settings: peptide 20 µg/ml, means of two independent experiments, control 6.10 x 10^5
# Experimental: as §2, §3
# H. pylori DMS 9691 = assay: Plating on Columbia blood agar with CFU counting; settings: peptide 20 µg/ml, means of two independent experiments, control 8.85 x 10^5
# Experimental: as §2, §3
# H. pylori KaE = assay: Plating on Columbia blood agar with CFU counting; settings: peptide 20 µg/ml, means of two independent experiments, control 1.42 x 10^6
# Experimental: as §2, §3
# H. pylori DSM 21031 = assay: Plating on Columbia blood agar with CFU counting; settings: peptide 20 µg/ml, means of two independent experiments, control 7.45 x 10^5
# Experimental: as §2, §3
# E. coli ATCC 25922 = assay: Flow cytometric viability assay with membrane potential sensitive dye DiBAC4(3)
# Experimental: as §1, §3
# [2] = system: H. pylori KaE1, DSM 9691, DSM 10242 and DSM 21031; assay: Radial diffusion assay, four H. pylori strains; settings: all four Helicobacter strains; 20 µg peptide per well, 3 days, 37 °C, microaerophilic
# Experimental: Additionally to determine inhibition of bacterial growth we performed radial diffusion assays with a modified protocol of the procedure from Robert Lehrer et al.. Briefly, H. pylori was grown on Columbia blood agar (BD, Sparks, USA), suspended in Brain Heart Infusion diluted 1:5 with aqua dest. and plated on an agar containing 20% brain heart infusion with 5% fetal calf serum. Wells with 3 mm diameter were punched into the agar and peptides were applied equivalent to the flow cytometric assay in a concentration of 20 µg per well. The agar plates were incubated for 3 days at 37 °C in a microaerophilic atmosphere with CampyGen.
substance,measurement,setting,value
"Ala - Gln - Glu - Pro - Val - Lys - Gly - Pro - Val - Ser - Thr - Lys - Pro - Gly - Ser - Cys - Pro - Ile - Ile - Leu - Ile - Arg - Cys - Ala - Met - Leu - Asn - Pro - Pro - Asn - Arg - Cys - Leu - Lys - Asp - Thr - Asp - Cys - Pro - Gly - Ile - Lys - Lys - Cys - Cys - Glu - Gly - Ser - Cys - Gly - Met - Ala - Cys - Phe - Val - Pro - Gln (disulfide) [Elafin, epithelial antiprotease elafin (PI3), cationic, 4 disulphide bridges; Proteo Biotech or Peptide Institute]",killing of P. aeruginosa,P. aeruginosa,limited killing
same,bactericidal effect,"[1]; H. pylori, elafin peptides from different companies",no bactericidal effect
same,depolarized bacteria,"[1]; all 4 H. pylori strains, 20 µg/ml peptide, Schaedler Broth 1:6, 37°C, 90 minutes, DiBAC4(3)",less than 5%
same,Colony forming units,H. pylori DSM 10242,4.85 x 10^5 CFU/ml
same,Colony forming units,H. pylori DMS 9691,9.59 x 10^5 CFU/ml
same,Colony forming units,H. pylori KaE,1.29 x 10^6 CFU/ml
same,Colony forming units,H. pylori DSM 21031,6.82 x 10^5 CFU/ml
same,depolarized bacteria,"E. coli ATCC 25922; 20 µg/ml peptide, 1.5x10^6 bacteria/ml in Schaedler Broth 1:6, 37°C, 90 minutes, then DiBAC4(3) 10 minutes, 10000 events",4%
same,bactericidal effect,"E. coli ATCC 25922; E. coli, elafin peptides from different companies",no bactericidal effect
same,zones of inhibition in radial diffusion assay,[2],no zones of inhibition
